Patent US20250281460A1, “PEGYLATED BILIRUBIN FOR THE TREATMENT OF […], OBESITY, FATTY LIVER DISEASE, CARDIOVASCULAR DISEASES AND TYPE II DIABETES” (The University of Toledo, priority 2019, published 2025)
“Also recorded” adds a separate entry of the source. One block for each compound: values may come before it.

Assays:
3T3-L1-WAT adipocytes = test: SeaHorse oxygen consumption rate in fully differentiated 3T3-L1-WAT adipocytes; format: cell-based, mouse; settings: 50 μM biliverdin, 50 μM WY 14,463, 10 μM rosiglitazone
Description: To compare the effects of bilirubin on the activation of PPARα or PPARγ on mitochondrial function, a SeaHorse XFe96 Analyzer was used to measure oxygen consumption rate (OCR) in fully differentiated 3T3-L1-WAT adipocytes treated with 50 μM biliverdin, 50 μM WY 14,463 (PPARα agonist), or 10 μM rosiglitazone (PPARγ-agonist). […]. Rosiglitazone, but not biliverdin or WY 14,643, enhanced the coupling efficiency. None of the ligands affected non-mitochondrial respiration, basal respiration, or proton leak.
Cellular respiration was quantified using the Seahorse Extracellular Flux Analyzer XF-96 (Agilent Technologies, Cedar Creek, TX). The Seahorse XF Cell Mito Stress Test Kit (Agilent Technologies, Cat #103015-100) was used for analysis of cellular respiration. BAT or 3T3-L1 cells were seeded on a XF96 cell culture microplate (Agilent 101085-004) at 20,000 cells per well. Cells were then differentiated as previously described for 9 days. […] The oxygen consumption rate (OCR) and extracellular acidification rate (ECAR) were used to quantify the cellular energy phenotype of the cells. After treatment, cells were washed twice with Seahorse Bioscience Assay Media (XF Base media with 25 mM Glucose, 2 mM […], and 1 mM Sodium Pyruvate) then incubated with the buffer for 1 hour in a non-CO2 incubator. The Seahorse Cartridge ports were loaded with […] of assay media with […] FCCP, 10 μM Oligomycin, 5 μM Rotenone/Antimycin A in different ports an hour before assay. […] The raw data and graphs were supplied as an Excel File or Graphpad Prizm file.

BAT cells [1] = test: Real-time PCR in differentiated BAT cells; format: cell-based, murine; settings: 50 μM biliverdin, 50 μM WY14,463, 10 μM rosiglitazone, 24 hrs
Description: Total RNA was extracted from mouse tissues using the miRNeasy Mini Kit (Qiagen). Total RNA was read on a NanoDrop 2000 spectrophotometer (Thermo Fisher Scientific, Wilmington, DE) and cDNA was synthesized using High Capacity cDNA Reverse Transcription Kit (Applied Biosystems). PCR amplification of the cDNA was performed by quantitative real-time PCR using TrueAmp SYBR Green qPCR SuperMix (Advance Bioscience). The thermocycling protocol consisted of 3 min at 95° C., 48 cycles of 15 sec at 95° C., 30 sec at 60° C., and based on primer size 0 to 30 sec at 72° C. and finished with a melting curve ranging from 60-95° C. to allow distinction of specific products. Normalization was performed in separate reactions with primers to 36B4.

BAT cells [2] = test: SeaHorse analysis in murine BAT cell line (wild-type); format: cell-based
[3] = test system: BAT PPARα CRISPR KO cells; test: Seahorse analysis in BAT PPARα CRISPR KO cells; format: cell-based, mouse; settings: both KO clones, 24 hours
Excerpt: To further delineate the actions of bilirubin on BAT, CRISPR technology was developed to knockout (KO) PPARα and establish two null clone lines. […]. The function of the ligands was lost in both clones for the BAT PPARα CRISPR KO cells.
CRISPR-Technology was employed in BAT as previously described to excise part of Exon 3 and Exon 4 of the PPARα gene to create a PPARα Knockout BAT cell line. Two sgRNAs with high efficacy and low off-target scores were identified on Exon 3 and 4 of the mouse PPARα gene using Benchling online software. The two Cas9 targets were separated by 9,465 bases. All of the off-targets to our PPARα sgRNA had 4 mismatches, of which at least 1-2 were within the seed region (up to 12 bases proximal to the protospacer adjacent motif (PAM) site) which reduces the likelihood of Cas9 off-target effects. The multiplex sgRNAs were generated using the PrecisionX Multiplex gRNA Cloning Kit according to manufacturer instructions. […] After 36 h of transfection, cells with the top 10% level of fluorescence were single-sorted into 96-well plates by fluorescent activated cell sorting. […]
Cellular respiration was quantified using the Seahorse Extracellular Flux Analyzer XF-96 (Agilent Technologies, Cedar Creek, TX). […] The oxygen consumption rate (OCR) and extracellular acidification rate (ECAR) were used to quantify the cellular energy phenotype of the cells. […]

human PPARα-LBD = target: T1, human PPARα-LBD (Homo sapiens, UniProt Q07869); test: MARCONI / PamStation nuclear hormone receptor coregulator assay; format: binding; settings: 50 μM
T1 construct: purchased Invitrogen PV4692
T1 sequence (Q07869 239-466 limits assumed): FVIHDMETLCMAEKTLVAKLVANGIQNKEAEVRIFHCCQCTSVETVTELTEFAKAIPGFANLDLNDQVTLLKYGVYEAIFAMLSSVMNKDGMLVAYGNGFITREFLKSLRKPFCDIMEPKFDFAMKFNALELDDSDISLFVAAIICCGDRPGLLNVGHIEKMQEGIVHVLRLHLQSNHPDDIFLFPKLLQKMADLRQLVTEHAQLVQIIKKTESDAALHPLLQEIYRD
Description: The molecular determinants that dictate specificity and selectivity in PPARα-coregulator interactions are largely unknown. […] To determine if bilirubin binds to the ligand binding domain (LBD) of PPARα to cause recruitment of a specific set of co-regulator proteins, the Microarray Assay for Realtime Coregulator-Nuclear Receptor Interaction (MARCONI) technology was used.
Incubation was performed at 37° C. for 5 minutes in 1.5 ml microtubes prior to placement on respective array for analysis in a PamStation96 (Pamgene International). PPARα binding was reflected via fluorescent signals recorded through the Pamstation96. The signals were transformed into tiff images and binding capacity was quantified using BioNavigator software (Pamgene International).

Structure (SMILES): Cc1cccc(Nc2cc(Cl)nc(SCC(=O)O)n2)c1C [WY 14,643, WY-14,643]
ATP production (3T3-L1-WAT adipocytes): not observed
mitochondrial OCR for maximum respiration (3T3-L1-WAT adipocytes): significantly increased
Adrb3 mRNA (BAT cells [1]): significant increase
Ucp1 mRNA (BAT cells [1]): significant increase
proton leak (BAT cells [2]; BAT cells): stimulated
ATP production (BAT cells [2]; WT BAT cells, 24 hours): increased; also recorded: stimulated
basal respiration (OCR) (BAT cells [2]; WT BAT cells, 24 hours): increased
maximum respiration (OCR) (BAT cells [2]; WT BAT cells, 24 hours): increased; also recorded: significantly higher
function of the ligands on mitochondrial function (OCR) [3]: lost

binding to the human PPARα-LBD (human PPARα-LBD): direct binding
binding of the human PPARα LBD to coregulator motifs (human PPARα-LBD; 154 coregulator motifs): mitigate binding
Structure (SMILES): C=CC1=C(C)/C(=C/c2[nH]c(Cc3[nH]c(/C=C4\NC(=O)C(C)=C4C=C)c(C)c3CCC(=O)O)c(CCC(=O)O)c2C)NC1=O [bilirubin, Bilirubin]
coregulators with reduced interactions with the human PPARα LBD (human PPARα-LBD; subtracted from the vehicle): PRGR (LXXL 102-124), PRGC1 (LXXL 134-154), and PELP1 (LXXL 446-468)
highest interacting coregulators recruited to PPARα-LBD (human PPARα-LBD; subtracted from the vehicle): MAPE (LXXL 249-271), WIPII (LXXL 313-335), CNOT1 (LXXL 2083-2105), PELP1 (LXXL 571-593), and others
